From patent EP2926811A1, “ARTEMETHER-CONTAINING PHARMACEUTICAL COMPOSITION, PREPARATION, AND USE THEREOF” (Kunming Pharmaceutical Corp., priority 2012, dated 2014)
Where two headings read alike, the source gives them in different places.

Tests used:
Type in all cases: cell-based
PC-3 cells = assay: modified MTT method, proliferation of PC-3 cells; conditions: Homo sapiens, read-out: IC50 on the growth of PC-3 cells
Procedure: (§1) Five test concentrations 2, 10, 50, 250 and 500 µM were set for each of five derivatives of artemisinin, artemether drug substance, artemisinin, dihydroartemisinin, artesunate were dissolved with dimethyl sulfoxide (DMSO), while the lyophilized powder of artemether was dissolved with normal saline (N.S.), followed by addition of a certain amount of RPMI 1640 complete culture solution to formulate a high-concentration solution, and each of the low-concentration solutions was formulated by proportionate dilution from the high-concentration solution.
(§2) The concentrations of DMSO contained in the solutions at the two relatively high concentrations 500 and 250 µM for the artemether drug substance, artemisinin, dihydroartemisinin, artesunate, used as solvent controls, were formulated with […] culture solution, at which time the test concentrations of DMSO were 1% and 0.5%. The concentrations of the excipients contained in the solutions at the two relatively high concentrations 500 and 250 µM for the preparation of lyophilized powder of artemether were used as solvent controls.
(§3) The positive control was an anti-cancer drug adriamycin (ADM), which was set at three test concentrations (final concentrations) of 0.1, 1 and 10 µg/ml. To ADM stock solution (1 mg/ml) a certain amount of PRMI 1640 complete culture solution was added, to formulate a high-concentration solution, and each of the low-concentration solutions were formulated by proportionate dilutions from the high-concentration solution.
(§4) HL-60: (human promyelocytic leukemia cell line); K562 (human chronic myelocytic leukemia cell line); HT-29 (human colon cancer cell line); PC-3 (human prostate cancer cell line); A549 (human non-small cell lung cancer cell line); MKN-28 (human gastric cancer cell line); Hep2 (human laryngeal cancer cell line), all of which were purchased from Cell Bank of Shanghai Institutes for Biological Sciences, the Chinese Academy of Sciences.
(§5) Influence of the five test samples on the proliferation of 7 human tumor cell lines was determined via a modified MTT method.
(§6) Cells in logarithmic growth phase were taken, adjusted to a certain concentration and then added into a 96 well culture plate. After culture of adherent cells for a period until adherence, the test samples were added; and for suspension cells, the test samples were added after inoculation. 5 test concentrations 2, 10, 50, 250 and 500 µM were set, with 3 parallel wells for each concentration, 10 µl/well; the solvent controls were 0.5% and 1% of isovolumetric DMSO, and the positive controls was ADM at 3 concentrations 0.1, 1 and 10 µg/ml. The samples were loaded followed by culture for a period of time in an incubator at 37°C, 5% CO2, followed by addition of MTT (5 mg/ml) at 20 µl/well, and continued to be cultured for a period of time and added with a three-combined solution [10% SDS - 5% isobutanol - 0.012 mol/L HCl (W/V/V)]. After dissolving in uniformity, it was continued to be placed in the incubator at 37°C, 5% CO2 for a period of time, and the OD value of each well was determined under a wavelength of 570 nm with a microplate reader, according to which the results were calculated.
(§7) The cellular proliferation inhibition rate was calculated in accordance with the following equation: Inhibition rate (%) = (OD valuecontrol well-OD valuesample well)/OD valuecontrol well × 100% [formula]
(§8) When the inhibition rate of DMSO on cells was more than 15%, calculation was carried out using the following equation: Inhibition rate (%) = (OD valuesolvent group-OD valueadministered well)/OD valuesolvent group × 100% [formula]
(§9) The inhibition rate was calculated by using Microsoft Excel 2003, and median inhibitory concentration IC50 was calculated with a LOGIT method, which was used as an indicator for judging the inhibitory capability.

Hep2 cells = assay: modified MTT method, proliferation of Hep2 cells; conditions: Homo sapiens, HEp-2, 72 h, secondary screening
Procedure: as §1, §2, §3, §4, §5, §6, §7, §8, §9
(§10) According to the results of preliminary screening, further experiments were adjusted such that more sensitive cell lines were screened out. […]

MKN-28 cells = assay: modified MTT method, proliferation of MKN-28 cells; conditions: Homo sapiens, MKN-28, 72 h, secondary screening
Procedure: as §1, §2, §3, §4, §5, §6, §7, §8, §9, §10

HL-60 cells = assay: modified MTT method, proliferation of HL-60 cells; conditions: Homo sapiens, read-out: IC50 on the growth of HL-60 cells
Procedure: as §1, §2, §3, §4, §5, §6, §7, §8, §9

HT-29 cells = assay: modified MTT method, proliferation of HT-29 cells; conditions: Homo sapiens
Procedure: as §1, §2, §3, §4, §5, §6, §7, §8, §9, §10

A549 cells = assay: modified MTT method, proliferation of A549 cells; conditions: Homo sapiens, read-out: IC50 on the growth of A549 cells
Procedure: as §1, §2, §3, §4, §5, §6, §7, §8, §9

K562 cells = assay: modified MTT method, proliferation of K562 cells; conditions: Homo sapiens, read-out: IC50 on the growth of K562 cells
Procedure: as §1, §2, §3, §4, §5, §6, §7, §8, §9

C[C@H]1[C@@H](O)O[C@@H]2O[C@@]3(C)CC[C@H]4[C@H](C)CC[C@@H]1[C@@]24OO3 [dihydroartemisinin]
IC50 (PC-3 cells; PC-3, 24 h, Batch 1, 24 h): 660 µM | IC50 (PC-3 cells; PC-3, 24 h, Batch 2, 24 h): > 1000 µM | IC50 (PC-3 cells; PC-3, 48 h, Batch 1, 48 h): > 1000 µM | IC50 (PC-3 cells; PC-3, 48 h, Batch 2, 48 h): > 1000 µM | IC50 (PC-3 cells; PC-3, 72 h, Batch 1, 72 h): 230 µM | IC50 (PC-3 cells; PC-3, 72 h, Batch 2, 72 h): > 1000 µM | IC50 (Hep2 cells; Batch 1, read-out: IC50 on the growth of Hep2 cells (72 h)): 114 µM | IC50 (Hep2 cells; Batch 2, read-out: IC50 on the growth of Hep2 cells (72 h)): 88.2 µM | IC50 (Hep2 cells; Batch 3, read-out: IC50 on the growth of Hep2 cells (72 h)): 126 µM | IC50 (Hep2 cells; average, read-out: IC50 on the growth of Hep2 cells (72 h)): 92 µM | IC50 (MKN-28 cells; Average, read-out: IC50 on the growth of MKN-28 cells (72 h)): 16.2 µM | IC50 (MKN-28 cells; Batch 1, read-out: IC50 on the growth of MKN-28 cells (72 h)): 15.1 µM | IC50 (MKN-28 cells; Batch 2, read-out: IC50 on the growth of MKN-28 cells (72 h)): 17.1 µM | IC50 (MKN-28 cells; Batch 3, read-out: IC50 on the growth of MKN-28 cells (72 h)): 16.5 µM | IC50 (HL-60 cells; HL-60, 24 h, Batch 1, 24 h): > 1000 µM | IC50 (HL-60 cells; HL-60, 24 h, Batch 2, 24 h): 74.4 µM | IC50 (HL-60 cells; HL-60, 48 h, Batch 1, 48 h): > 1000 µM | IC50 (HL-60 cells; HL-60, 48 h, Batch 2, 48 h): 16.3 µM | IC50 (HL-60 cells; HL-60, 72 h, Batch 1, 72 h): > 1000 µM | IC50 (HL-60 cells; HL-60, 72 h, Batch 2, 72 h): 116 µM | IC50 (HT-29 cells; HT-29, 24 h, preliminary screening, Batch 1, 24 h, read-out: IC50 on the growth of HT-29 cells): 288 µM | IC50 (HT-29 cells; HT-29, 24 h, preliminary screening, Batch 2, 24 h, read-out: IC50 on the growth of HT-29 cells): 280 µM | IC50 (HT-29 cells; HT-29, 48 h, preliminary screening, Batch 1, 48 h, read-out: IC50 on the growth of HT-29 cells): 337 µM | IC50 (HT-29 cells; HT-29, 48 h, preliminary screening, Batch 2, 48 h, read-out: IC50 on the growth of HT-29 cells): 433 µM | IC50 (HT-29 cells; HT-29, 72 h, preliminary screening, Batch 1, 72 h, read-out: IC50 on the growth of HT-29 cells): 160 µM | IC50 (HT-29 cells; HT-29, 72 h, preliminary screening, Batch 2, 72 h, read-out: IC50 on the growth of HT-29 cells): 258 µM | IC50 (HT-29 cells; HT-29, 72 h, secondary screening, 72 h, Batch 1, read-out: IC50 on the growth of HT-29 cells (72 h)): 236 µM | IC50 (HT-29 cells; HT-29, 72 h, secondary screening, 72 h, Batch 2, read-out: IC50 on the growth of HT-29 cells (72 h)): 173 µM | IC50 (HT-29 cells; HT-29, 72 h, secondary screening, 72 h, Batch 3, read-out: IC50 on the growth of HT-29 cells (72 h)): 148 µM | IC50 (HT-29 cells; HT-29, 72 h, secondary screening, 72 h, average, read-out: IC50 on the growth of HT-29 cells (72 h)): 143 µM | IC50 (A549 cells; A549, 24 h, Batch 1, 24 h): > 1000 µM | IC50 (A549 cells; A549, 24 h, Batch 2, 24 h): 935 µM | IC50 (A549 cells; A549, 48 h, Batch 1, 48 h): > 1000 µM | IC50 (A549 cells; A549, 48 h, Batch 2, 48 h): 221 µM | IC50 (A549 cells; A549, 72 h, Batch 1, 72 h): > 1000 µM | IC50 (A549 cells; A549, 72 h, Batch 2, 72 h): 192 µM | IC50 (K562 cells; K562, 24 h, Batch 1, 24 h): > 1000 µM | IC50 (K562 cells; K562, 24 h, Batch 2, 24 h): 144 µM | IC50 (K562 cells; K562, 24 h, Batch 3, 24 h): 146 µM | IC50 (K562 cells; K562, 48 h, Batch 1, 48 h): 997 µM | IC50 (K562 cells; K562, 48 h, Batch 2, 48 h): 28 µM | IC50 (K562 cells; K562, 48 h, Batch 3, 48 h): 80.7 µM | IC50 (K562 cells; K562, 72 h, Batch 1, 72 h): 492 µM | IC50 (K562 cells; K562, 72 h, Batch 2, 72 h): 44.8 µM | IC50 (K562 cells; K562, 72 h, Batch 3, 72 h): 60.5 µM
